Reference: US11607426B2, “Method of targeting oncolytic viruses to tumors” (UNIVERSITY OF SOUTH FLORIDA, priority 2016, dated 2023)
Read-outs that look alike come from different tables or passages of the source.

What was measured:
PBMCs = assay type: cell-based, human
IDO = IDO (Homo sapiens, UniProt P14902); assay type: cell-based; details: RSV-infected MSCs treated with 1 mM 1-MT or 10 μM vitamin K3
RSV = RSV infection (viral titers) in 1-MT or vitamin K3 treated human MSCs; assay type: cell-based, respiratory syncytial virus; details: human MSCs treated with 1-MT or vitamin K3
hMSCs = assay: Boyden chamber invasion assay, hMSC migration towards LLC1 cells; details: media containing 1MT, 24 hours coculture
Method: Migrated MSCs were counted after 24 h.
To test the effect of 1-MT on the migratory capacity of hMSCs the inventors used a Boyden chamber invasion assay with Lewis lung carcinoma (LLC1) cells in the bottom chamber to produce trophic factors. MSCs were seeded on the top of a matrigel layer above a PET membrane with 8.0 μm pores (BD Bioscience) and treated with control MSC media or media containing 1MT. Cells were cocultured for 24 hours before fixation in 4% paraformaldehyde in PBS. Upper matrigel layer was removed by cue tip and migrant cells were visualized and counted by Giemsa staining.

Chain of IDO (P14902 whole entry): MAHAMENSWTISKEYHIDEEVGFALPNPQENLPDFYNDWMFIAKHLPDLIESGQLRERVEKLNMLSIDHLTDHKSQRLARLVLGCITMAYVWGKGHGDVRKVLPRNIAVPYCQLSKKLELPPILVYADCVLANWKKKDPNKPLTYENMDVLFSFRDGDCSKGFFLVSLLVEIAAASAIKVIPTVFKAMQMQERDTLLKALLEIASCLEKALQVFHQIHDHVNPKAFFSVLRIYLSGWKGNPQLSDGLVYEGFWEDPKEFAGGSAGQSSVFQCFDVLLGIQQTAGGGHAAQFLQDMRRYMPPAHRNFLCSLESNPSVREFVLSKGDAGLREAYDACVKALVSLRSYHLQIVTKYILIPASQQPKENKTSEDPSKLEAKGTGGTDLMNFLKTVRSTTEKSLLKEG

| Structure (SMILES) | effect on inhibition of PBMC proliferation by RSV-infected MSC conditioned medium (CFSE dye dilution) (PBMCs; 1 mM 1-MT or 10 μM vitamin K3, PHA, 5 days, flow cytometry) | kynurenine levels (IDO) | RSV infection as determined by viral titers (RSV) | effect on inhibition of PBMC proliferation by RSV-infected MSC conditioned medium (CFSE dye dilution) (PBMCs) | migration of hMSC towards LLC1 cells (hMSCs) |
| --- | --- | --- | --- | --- | --- |
| CC1=CC(=O)c2ccccc2C1=O [vitamin K3] | abolished the negative effect on PBMC proliferation | reduced kynurenine levels | did not reduce RSV infection | – | – |
| Cn1cc(C[C@H](N)C(=O)O)c2ccccc21 [1-MT, 1-methyltryptophan] | – | – | did not reduce RSV infection | abolished the negative effect on PBMC proliferation | did not inhibit migration |
